Reference: patent US20230240958A1, “COSMETIC COMPOSITION WITH ENHANCED COLOR STABILITY FOR RETINOIC ACID PRECURSOR” (Conopco, Inc., d/b/a UNILEVER, priority 2020, published 2023)

Assay: Color stability by LabScan XE (CIELAB L*, a*, b*, ΔE) after storage
Assay type: physicochemical
Conditions: Examples 3 and 4
Description: Generally, ΔE≤10 is acceptable, ΔE between 10 to 20 is negotiable and ΔE>20 is unacceptable. For the b* value, the values represent a blue-yellow component of an object's color, wherein a negative (−) value represents movement into the blue color space while a positive (+) value represents movement into the yellow color space. A b* value of 0 represents a true neutral gray value.
Color stability is determined through the use of LabScan XE equipment (Hunter Associates Laboratory, Inc. Reston, Va.). LabScan XE measures color data. Samples at different storage stages housed in vials or in measurement cells are loaded onto the LabScan XE measurement port. By following the measurement procedure specified in the associated instrument menu and computer software, colors (a*, b* and L*) are measured and calculated to result in a color change data (ΔE) value. b* is the scale of blue-yellow space based on the CIELAB color space model, wherein an increase in b* value indicates the increase in yellow color components, and the decrease of b* value indicates the increase of blue color components.

CCCCCCCCCCCCCC(=O)OC(C)C [isopropyl myristate]
color stability / ΔE over time, comparison in words: greater color stability
